System: Human CTPS1 versus CTPS2
Assay: RapidFire/MS-based enzyme selectivity assay, human CTPS1 versus CTPS2
Assay type: biochemical
Conditions: calculated from RF/MS IC50 values for human CTPS1 and CTPS2
Experimental: Human CTPS1 versus CTPS2 Selectivity Assessment by RapidFire/MS Analysis.
The enzyme inhibitory activities against each target isoform of interest may be determined for the compounds of the invention using an optimised RapidFire high-throughput mass spectrometry (RF/MS) assay format. RF/MS assays for both human CTPS1 and CTPS2 may be performed in assay buffer consisting of 50 mM HEPES (Merck), 20 mM MgCl2, 5 mM KCl, 1 mM DTT, 0.01% Tween-20, pH to 8.0 accordingly. Human full-length active C-terminal FLAG-His-tag CTPS1 (UniProtKB-P17812, CTPS[1-591]-[…]) may be obtained from Proteros biostructures GmbH. Human full length active C-terminal FLAG-His-Avi tagged CTPS2 (UniProtKB-Q9NRF8, CTPS2 [1-586]-[…]) may be obtained from Harker Bio.
Human CTPS (1 or 2) protein may be prepared in 1× assay buffer to the final working protein concentration required for the reaction. A 2 uL volume per well of 2×CTPS (1 or 2) protein may be mixed with 40 nL of compound using acoustic (ECHO) delivery and incubated for 10 minutes at 25° C. Each isoform enzymatic reaction may be subsequently initiated by addition of 2 uL per well of a 2× substrate mix in assay buffer. For hCTPS1: ATP (0.3 mM), UTP (0.2 mM), GTP (0.07 mM) and L-glutamine (0.1 mM). For hCTPS2: ATP (0.1 mM), UTP (0.04 mM), GTP (0.03 mM) and L-glutamine (0.1 mM). Each mixture may be incubated for an appropriate amount of time per isoform within the determined linear phase of the reaction at 25° C. A 60 uL volume of stop solution (1% formic acid with 0.5 uM ^13C9-^15N3-CTP in H20) may be added and the plate immediately heat-sealed and centrifuged for 10 minutes at 4,000 rpm. Following centrifugation, plates may be loaded onto the Agilent RapidFire microfluidic solid phase extraction system coupled to an API4000 triple quadrupole mass spectrometer (RF/MS) for analysis.
In all cases, the enzyme converts UTP to CTP. Highly specific and sensitive multiple reaction monitoring (MRM) MS methods may be optimised for the detection of the enzymatic reaction product, CTP, and the stable isotope labelled product standard ^13C9-^15N3-CTP. Readout for data analysis may be calculated as the ratio between the peak area of the product CTP and the internal standard ^13C9-^15N3-CTP. For data reporting, the following equation may be used: […]
For each screening plate, the means of the negative (DMSO) and positive control values were used for the calculation of the respective assay window (S/B) and Z′ values. The median of the respective control values was used for calculation of percent inhibition according to the following equation: […]
Percentage inhibition was then plotted against compound concentration, and the 50% inhibitory concentration (IC50) was determined from the resultant concentration-response curve.
Fold selectivity between CTPS1 and CTPS2 was subsequently calculated according to the following equation: […]

| Compound | Selectivity (fold selectivity between CTPS1 and CTPS2) |
| --- | --- |
| CCOc1cncc(-c2ccc(NC(=O)C(F)(CC)c3cncc(NS(=O)(=O)C4CC4)n3)nc2)n1 (single isomer, unassigned) [P207, 2-(6-(cyclopropanesulfonamido)pyrazin-2-yl)-N-(5-(6-ethoxypyrazin-2-yl)pyridin-2-yl)-2-fluorobutanamide] | + (2-30 fold (+)) |
| CCOc1cncc(-c2ccc(NC(=O)C(F)(CC)c3cncc(NS(=O)(=O)C4CC4)n3)nc2)n1 (single isomer, unassigned) [P206, 2-(6-(cyclopropanesulfonamido)pyrazin-2-yl)-N-(5-(6-ethoxypyrazin-2-yl)pyridin-2-yl)-2-fluorobutanamide] | +++ (>60 fold (+++)) |
| CCOc1cncc(-c2ccc(NC(=O)C(F)(CC)c3ccnc(NS(=O)(=O)C4CC4)n3)nc2)n1 (single isomer, unassigned) [P114, 2-(2-(Cyclopropanesulfonamido)pyrimidin-4-yl)-N-(5-(6-ethoxypyrazin-2-yl)pyridin-2-yl)-2-fluorobutanamide] | +++ (>60 fold (+++)) |
| CCOc1cncc(-c2ccc(NC(=O)C3(c4ccnc(NS(=O)(=O)C5CC5)n4)CCOCC3)nc2)n1 [P115, 4-(2-(Cyclopropanesulfonamido)pyrimidin-4-yl)-N-(5-(6-ethoxypyrazin-2-yl)pyridin-2-yl)tetrahydro-2H-pyran-4-carboxamide] | +++ (>60 fold (+++)) |
| CCOc1cncc(-c2ccc(NC(=O)C3(c4ccnc(NS(=O)(=O)C5CC5)n4)CCCC3)nc2)n1 [P136, 1-(2-(cyclopropanesulfonamido)pyrimidin-4-yl)-N-(5-(6-ethoxypyrazin-2-yl)pyridin-2-yl)cyclopentane-1-carboxamide] | +++ (>60 fold (+++)) |
| CCOc1cncc(-c2ccc(NC(=O)C(F)(CC)c3ccnc(NS(=O)(=O)C4CC4)n3)nc2)n1 (single isomer, unassigned) [P113, 2-(2-(Cyclopropanesulfonamido)pyrimidin-4-yl)-N-(5-(6-ethoxypyrazin-2-yl)pyridin-2-yl)-2-fluorobutanamide] | + (2-30 fold (+)) |
| CCOc1cncc(-c2ccc(NC(=O)C3(c4ccnc(NS(=O)(=O)C5CC5)n4)CCOCC3)c(F)c2)n1 [P143, 4-(2-(cyclopropanesulfonamido)pyrimidin-4-yl)-N-(4-(6-ethoxypyrazin-2-yl)2-fluorophenyl)tetrahydro-2H-pyran-4-carboxamide] | +++ (>60 fold (+++)) |
| CCOc1cncc(-c2ccc(NC(=O)C3(c4cncc(NS(=O)(=O)C5CC5)n4)CCOCC3)nc2)n1 [P197] | +++ (>60 fold (+++)) |
| CCOc1cncc(-c2ccc(NC(=O)C(CCOC)c3ccnc(NS(=O)(=O)C4CC4)n3)nc2)n1 (stereo not drawn) [P145, 2-(2-(cyclopropanesulfonamido)pyrimidin-4-yl)-N-(5-(6-ethoxypyrazin-2-yl)pyridin-2-yl)-4-methoxybutanamide] | +++ (>60 fold (+++)) |
